From patent US12286437B2, “Cardiac sarcomere inhibitors” (Cytokinetics, Inc., priority 2021, dated 2025)

Experiments:
[1] = Projected single-dose CL and Vss values in humans (allometric scaling of mouse, rat, dog, monkey IV PK); settings: human, projected by allometric scaling from single-dose IV PK
Experimental: Allometric scaling for the prediction of human Clearance and Volume of Distribution was based on interspecies simple allometric scaling of mouse, rat, dog, and cynomolgus monkey intravenous pharmacokinetic parameters (Boxenbaum, J Pharmacokinet Biopharm 10:201-27, 1982). Prediction of human CL was performed by extrapolating pre-clinical species' plasma intravenous clearance. The ‘rule of exponents’ (Mahmood & Balian, Life Sci 59:579-85, 1996) was examined in this prediction, where it has been proposed that, when the exponent of simple allometry lies between […] and 0.99, a correction factor based on Maximum Life Span (MLP) of this species can be applied and, when the exponent of simple allometry is greater than 1.0, a correction factor based on Brain Weight (BrW) can be applied, or a protein binding correction can be applied when available. In a similar manner, simple allometric scaling was employed to predict human Volume of Distribution. This method has been used successfully for varied drugs (Ward & Smith, Drug Metab Dispos 32:612-19, 2004; McGinnity et al., Curr Drug Metab 8:463-79, 2007).

CYP3A4 = target: T1, CYP3A4 (Homo sapiens, UniProt P08684); assay: Time-dependent inhibition of CYP3A4 in human liver microsomes (testosterone and midazolam probes); format: in vitro ADME; settings: for (% Activity NADPH T0)/(% Activity NADPH T30): fold change
T1 construct: Pooled human microsomes and selective CYP probe substrates were used; from tissue; host or cells: pooled human liver microsomes
Experimental: An assessment of the time-dependent Inhibitory Potential of the test compounds against Principal Human Cytochrome P450 Isozymes using Human Liver Microsomes was also carried out using standard methods (Grimm et al, Drug Metab. Dispos., July; 37(7):1355-70. doi: 10.1124/dmd.109.026716, 2009). Pooled human microsomes and selective CYP probe substrates were used for in vitro assessment of test compounds at 25 and 50 μM as time-dependent inhibitors of […] human hepatic cytochrome P450 isozymes (CYP1A2, 2B6, 2C9, 2C19, 2D6, and 3A4). LC-MS/MS was used to quantify metabolite formation. The inhibition of each P450 enzyme in human liver microsomes was measured as the percentage decrease in the activity of marker metabolite formation as measured by LC-MS/MS compared to non-inhibited controls (=100% activity) at time zero and after 30 minutes incubation. The occurrence of any time dependent inhibition was then expressed as the fold change in enzyme activity at time zero relative to the activity after 30 minutes incubation.

[2] = tested on: bovine cardiac myofibrils; assay: Myofibril assay (ATPase activity of skinned bovine cardiac myofibrils, PK/LDH-coupled); format: biochemical; settings: inhibition of steady-state ATPase of bovine cardiac myofibrils; CaCl2 for 50% or 75% activation
Experimental: To evaluate the effect of compounds on the ATPase activity of full-length cardiac myosin in the context of the native sarcomere, skinned myofibril assays were performed. Bovine cardiac myofibrils were obtained by homogenizing bovine cardiac left ventricular tissue in the presence of a detergent such as triton X-100. Such treatment removes membranes and a majority of the soluble cytoplasmic proteins but leaves intact the cardiac sarcomeric acto-myosin apparatus. Myofibril preparations retain the ability to hydrolyze ATP in a Ca^2+ regulated manner. ATPase activities of such myofibril preparations in the presence and absence of compounds were assayed at Ca^2+ concentrations activating to a defined fraction of the maximal rate (i.e., […], 75%). Small molecule agents were assessed for their ability to inhibit the steady-state ATPase activity of bovine cardiac myofibrils using pyruvate kinase and lactate dehydrogenase (PK/LDH)-coupled enzyme system. This assay regenerates myosin-produced ADP into ATP by oxidizing NADH, producing an absorbance change at 340 nm. Prior to testing small molecule agents, the bovine cardiac myofibrils were assessed for their calcium responsiveness and the calcium concentration that achieves either a 50% (pCa50) or 75% (pCa75) activation of the myofibril system was chosen as the final condition for assessing the inhibitory activity of the small molecule agents. All enzymatic activity was measured in a buffered solution containing 12 mM PIPES (piperazine-N,N′-bis(2-ethanesulfonic acid), 2 mM magnesium chloride at pH 6.8 (PM 12 buffer). Final assay conditions were 1 mg/mL of bovine cardiac myofibrils, 4 U/mL pyruvate kinase, 6 U/mL lactate dehydrogenase, 50 μM ATP, 0.1 mg/mL BSA (bovine serum albumin), 10 ppm antifoam, 1 mM DTT, 0.5 mM NADH, 1.5 mM PEP, 0.6 mM EGTA, and an amount of CaCl2 sufficient to achieve either 50% or 75% activation of the myofibril ATPase activity. Results for compounds tested are provided in Table A. Compounds tested were prepared in accordance with the synthetic procedures described herein.

[3] = Dog single dose pharmacokinetics; format: in vivo, beagle dogs; settings: male, beagle, plasma, IV, read-out: t½ (converted)
Experimental: Non-naïve male beagle dogs (8 months-3 years of age, body weight 8-13 kg) were used in this study. All animals for IV administration had free access to food and water; all animals for PO were fasted overnight prior to dosing and were fed approximately 6 hours after dosing. For the animals in PO group, pentagastrin (6.0 μg/kg, i.m.) was administrated 20 minutes before dosing PO formulation and 1.5 hours after the first pentagastrin dosing. The dosing volume was 0.024 mL/kg, the concentration was 250 μg/mL in DMSO/1 N NaOH/PBS. 10 mL of 0.001 N HCl was used to wash the gavage catheter for each animal. The IV dose solution was prepared in 10% DMA/50% PG/40% HPβCD solution (40% w/v aqueous HPβCD) at a concentration of 1.0 mg/mL. The oral dose suspension was prepared by suspending the compound in 0.5% HPMC/0.1% Tween 80 in distilled water at a concentration of 0.2 mg/mL. Concentrations of IV and PO doses were measured at the end of the study. PK parameters were calculated using the nominal dose values if the measured values were within 20% of the nominal values. Blood samples were collected by venipuncture of peripheral veins except the dosing vein at pre-dose, 5 15, 30 min, 1, 2, 4, 6, 8, 24 and 48 h post-dose. Blood samples were centrifuged and resultant plasma was frozen for bioanalysis. Plasma samples were stored at −80° C. before analysis. Plasma samples were analyzed for compound concentrations using the LC/MS/MS method. Briefly, a 50 μL aliquot of each plasma sample was mixed with 100 μL of acetonitrile that contained an internal standard. The mixture was vortexed and centrifuged. Ten (10) μL of the resulting solution was injected onto a reverse-phase C18 column and the resultant peaks detected on a LC/MS/MS equipped with a turbo ionspray ionization source. Sample concentrations below the limit of quantification (BLQ) were treated as zero for PK calculations. PK parameters were estimated from individual animals using noncompartmental analysis of the concentration-time data (Phoenix WinNonLin software, version 64; Pharsight, Mountain View, CA). The elimination rate constant (k) was calculated as the absolute value of the slope of the linear regression of logarithm (log) of the concentration versus time for the last three data points of the concentration-time profiles. Apparent elimination half-life (t1/2) values were calculated as ln(2)/k. Area under the concentration-time curve (AUC) values were estimated using linear trapezoidal method. AUCt values were calculated from the dosing time to the last measurable concentration. AUC∞ values were calculated as the sum of the corresponding AUCt and the ratio of the last detectable concentration divided by k. Plasma clearance (CL) was calculated from Dose/AUC∞. Mean resident time extrapolated to infinity (MRT∞) was estimated by moment analysis. Vss was calculated from MRT∞×CL. Maximum concentration (Cmax) and time to reach Cmax (tmax) were recorded as observed. As this was a cross-over study, bioavailability was calculated dAUC∞,po/dAUC∞,iv×100% where dAUC was the dose normalized AUC value from the same animal given IV and PO dose. Data for compounds tested are provided in Table D. Compounds tested were prepared in accordance with the synthetic procedures described herein.

T1 sequence (P08684 whole entry): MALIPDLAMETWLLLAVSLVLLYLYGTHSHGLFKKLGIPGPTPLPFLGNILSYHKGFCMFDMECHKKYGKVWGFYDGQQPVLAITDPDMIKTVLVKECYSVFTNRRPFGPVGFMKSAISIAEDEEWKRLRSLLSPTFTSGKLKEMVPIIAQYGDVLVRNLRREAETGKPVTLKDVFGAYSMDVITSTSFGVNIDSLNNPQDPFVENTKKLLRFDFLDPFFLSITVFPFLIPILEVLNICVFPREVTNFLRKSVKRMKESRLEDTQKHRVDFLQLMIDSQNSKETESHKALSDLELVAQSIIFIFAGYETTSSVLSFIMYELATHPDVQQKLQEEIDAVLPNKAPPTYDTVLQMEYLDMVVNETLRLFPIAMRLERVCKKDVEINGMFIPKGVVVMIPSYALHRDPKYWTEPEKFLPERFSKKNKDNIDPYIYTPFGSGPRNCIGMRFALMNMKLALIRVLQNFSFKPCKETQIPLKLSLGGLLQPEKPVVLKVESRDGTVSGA

## O=C1[C@H](C2COC2)N(Cc2ccc(C(F)(F)F)cc2)C(=O)CN1c1ncc(Cl)cc1F [Comparator C, (S)-1-(5-chloro-3-fluoropyridin-2-yl)-3-(oxetan-3-yl)-4-(4-(trifluoromethyl)benzyl)piperazine-2,5-dione, reference compound]
[1]
  Projected CL: 3.9 mL/min/kg
  Projected Vss: 13.9 L/kg
  Projected t½: 41 h
CYP3A4; CYP3A4-M (midazolam probe substrate), 25 μM
  (% Activity NADPH T0)/(% Activity NADPH T30): 1.6
CYP3A4; CYP3A4-M (midazolam probe substrate), 50 μM
  (% Activity NADPH T0)/(% Activity NADPH T30): 1.7
CYP3A4; CYP3A4-T (testosterone probe substrate), 25 μM
  (% Activity NADPH T0)/(% Activity NADPH T30): 1.8
CYP3A4; CYP3A4-T (testosterone probe substrate), 50 μM
  (% Activity NADPH T0)/(% Activity NADPH T30): 1.8
CYP3A4; both midazolam and testosterone probes, 25 and 50 μM
  change in fold activity of 3A4 (time dependent inhibition): > 1.5 fold
[2]
  CDMF IC15: 1100 nM
[3]
  half-life: 14.7 h
